According to patent US9210936B2, “Biocidal compositions and methods of use” (Dow Global Technologies LLC, priority 2011, dated 2015):

What was measured:
Assay type in all cases: cell-based
[1] = system: Desulfovibrio longus ATCC 51456; experiment: Biocidal efficacy (MBC, minimum tested biocide concentration for complete bacterial kill) against anaerobic bacteria in salt solution; settings: 35° C., 2 hours, 10^6 to 10^7 CFU/mL; for Concentration (ppm active) for anaerobic bacteria kill, DTEA: DTEA part of the MBC for complete bacterial kill; for Concentration (ppm active) for anaerobic bacteria kill, THPS: THPS part of the MBC for complete bacterial kill
Description: The synergy indexes reported in the following examples are calculated using the following equation: Synergy Index=Ca/CA+Cb/CB
Ca: Concentration of biocide A required to achieve a certain level of bacterial kill when used in combination with B
CA: Concentration of biocide A required to achieve a certain level of bacterial kill when used alone
Cb: Concentration of biocide B required to achieve a certain level of bacterial kill when used in combination with A
CB: Concentration of biocide B required to achieve a certain level of bacterial kill when used alone.
A synergy index (SI) of 1 indicates additivity, a synergy index of less than 1 indicates synergy, and a synergy index greater than 1 indicates antagonism.
Inside an anaerobic chamber (Bactron anaerobic chamber), a deoxygenated sterile salt solution (3.1183 g of NaCl, 1.3082 mg of NaHCO3, 47.70 mg of KCl, 72.00 mg of CaCl2, 54.49 mg of MgSO4, 172.28 mg of Na2SO4, 43.92 mg of Na2CO3 in 1 L water) is inoculated with Desulfovibrio longus ATCC 51456 to a final bacterial concentration of 10^6 to 10^7 CFU/mL. […] After the treated cell suspensions are incubated at 35° C. for 2 hours, the biocidal efficacy is determined by minimum tested biocide concentration for complete bacterial kill in the aliquots (MBC).

[2] = system: Biofilms of Desulfovibrio longus ATCC 51456 (sessile bacteria); experiment: Sessile bacteria kill in biofilms grown in Calgary Biofilm Device; settings: 72 hours biofilm, 2 hours treatment, anaerobic
Description: (§1) Modified Baar's Medium (ATCC #1249 Broth) is used as culture medium and the medium is changed after 48 hrs of incubation.

[3] = system: Biofilms of Desulfovibrio longus ATCC 51456; experiment: Biofilm removal, remaining biofilm by crystal violet staining; settings: 2 hours treatment, optical density of biofilm captured crystal violet at 580 nm
Description: as §1
The biofilm is fixed with 99% methanol and, after air drying, the pegs are stained with 2% (w/v) crystal violet and washed with tap water. The pegs are then air dried and the crystal violet bound to the biofilm is extracted with 33% glacial acetic acid. The total remaining biofilm is determined by the optical density (OD) of the extracted solution at 580 nm.

Compound	Concentration (ppm active) for anaerobic bacteria kill, DTEA [1] [ppm active]	Concentration (ppm active) for anaerobic bacteria kill, THPS [1] [ppm active]	Concentration (ppm active) for 3 log10 bacterial reduction [2] [ppm active]	Remaining biofilm, OD580 ([3]; 50 ppm active)	Remaining biofilm, OD580 ([3]; 100 ppm active)
CCCCCCCCCCSCCN [DTEA, 2-(decylthio)ethanamine]	20.00	0.00	–	–	–
tetrakis(hydroxymethyl)phosphonium sulfate [THPS]	0.00	19.75	50	0.57	0.68
